Measured values reported in patent publication US7169604B1, “Method for PR-39 peptide mediated selective inhibition of IκBα degradation” (Beth Israel Deaconess Medical Center, priority 1998, dated 2007).
Peptide text beside a SMILES is read from it. * marks the point of attachment. Cbz = O=C(OCc1ccccc1)*

Tests used:
Format in all cases: cell-based, human
IκBα [1] = experiment: Reversibility of inhibition of IκBα degradation after washout in U937 cells; conditions: 10 μM for 45 min, washed, 45 min later TNF-α 1 ng/ml, 10 min
Experimental: In parallel cells were exposed to MG132, a rapidly reversible competitive inhibitor of the proteasome or with lactacystin which covalently and irreversibly modifies the active site threonine residues. The results are shown by FIG. 1F.
U937 cells were pretreated with 100 nM of PR-39, 10 μM of either MG132 or lactacystin (LC) or buffer (Control) for 45 min. These cells were then extensively washed with fresh medium. 45 min later TNF-α (1 ng/ml) was added to medium, and the extent of IκBα degradation was determined 10 min later by Western blotting.

NFκB = experiment: NFκB-dependent luciferase reporter (pNFκB-Luc) in ECV304 cells; conditions: 45 min pretreatment with 10 μM, TNF-α 1 ng/ml
Experimental: The results are presented by FIG. 2A.
The effect of PR-39-mediated inhibition of IκBα degradation on NFκB-dependent transcription was tested in ECV304 cells transiently transfected with pNFκB-Luc reporter vector.

U937 cells = experiment: Proteasome-dependent degradation of total cellular proteins (35S Met pulse-chase); conditions: Homo sapiens, U-937, 1 hr chase, chloroquin 45 μM, after 16 hr metabolic labeling, read-out: inhibition of total cell protein degradation
Experimental: Therefore the extent of degradation of long-lived cell proteins before or following exposure was compared to either PR-39 or MG132. The result is given by FIG. 3A.
Exponentially proliferating U937 cells were grown in 10% FBS-RPMI 1640 methionine-free medium supplemented with 200 μCi ^35S Met for 16 hr. Cells were then washed with complete RPMI 1640 medium 3 times and cultured in 10% FBS-RPMI (chase) in the presence of 10 μM of either PR-39 or MG132 or an equal volume of PBS. Chloroquin (45 μM) was added to all cultures to prevent the lysosomal protein degradation. 1 hr later the cells were lysed, and TCA soluble ^35S counts were measured in a liquid scintillation counter (LKB). All experiments were carried out in triplicate and repeated three times. The data are shown as mean±standard deviation.

HSP70 = HSP70 expression by Western blotting
IκBα [2] = experiment: TNF-α induced degradation of IκBα in U937 cells; conditions: 45 min pretreatment with 10 μM, TNF-α 1 ng/ml, 10 min
Experimental: Tumor necrosis factor (TNF)-α is known to induce rapid degradation of IκBα by the Ub-proteasome pathway.
As shown by FIG. 1E, PR-39 prevents TNF-a induced degradation of IκBα. U937 cells were cultured in 10% FBs-RPMI medium in the absence (−) or presence of TNF-a (1 ng/ml). 10 min following TNF-α addition, the cells were washed and IκBα protein levels assessed by Western blotting.
Note that a […] 45 min of pretreatment with 100 nM of PR-39 or 10 μM of MG132 or lactacystin (LC) prior to addition of blocked TNF-α, blocked cytokine-induced degradation of IκBα expression.

IκBα [3] = experiment: IκBα protein levels in ECV304 cells by Western blotting; conditions: ECV304 cells, 2 hr, 10 μM
Experimental: For IκBα expression studies, normally proliferating wild type ECV304 cells (ECV) or ECV-PR-39 and ECV-E4 cells were lysed in the loading buffer, subjected to electrophoresis on 10% SDS-PAGE gel and transferred to a PVDF membrane. IκBα expression was then determined by Western blotting with anti-IκBα antibody (Santa Cruz, Inc.). ECV304 cells treated for 2 hr with 10 μM of lactacystin (LC) were used as control.
Western blotting of ECV cell lysate was carried out following 2 hr exposure to buffer (0) or 100 or 50 nM of PR-39. […] Clearly, exposure of wild type ECV304 cells to the synthetic PR-39 peptide led to a dose-dependent increase in IκBα levels.

In the case of `CC(C)C[C@@H](C=O)NC(=O)[C@H](CC(C)C)NC(=O)[C@H](CC(C)C)NC(=O)OCc1ccccc1` [MG132, reference compound] (Cbz-Leu-Leu-Leu-aldehyde), the “extent of IκBα degradation after washout” value (IκBα [1]) is reported as “complete disappearance of IκBα protein”, the “TNF-α induced increase in luciferase activity” value (NFκB) is reported as “completely blocked” and the inhibition at 10 µM (U937 cells) is reported as about 50%. For the same compound, the HSP70 expression (HSP70; U937 cells, 1 μM, 3 hr exposure) was “appearance of HSP70 expression”, the HSP70 levels (HSP70; cultured ECV304 cells, 10 μM) was “striking increase in HSP70 levels” and the “TNF-α caused decline of the level of IκBα” value (IκBα [2]) was “markedly reduced”.
For `CC(=O)N[C@@H](CSC(=O)[C@]1([C@@H](O)C(C)C)NC(=O)[C@H](C)[C@@H]1O)C(=O)O` [lactacystin], the “extent of IκBα degradation after washout” value (IκBα [1]) was “irreversibly blocked proteasome-mediated degradation of IκBα”, the “TNF-α induced increase in luciferase activity” value (NFκB) was “completely blocked” and the IκBα levels (IκBα [3]) was “increased IκBα levels”. For the same compound, the “TNF-α caused decline of the level of IκBα” value (IκBα [2]) was “markedly reduced”.
